Test results from PubChem BioAssay (NCI).
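Dose response: 5 concentrations. Exposure: 48 h. Format: 96-well plates. Endpoint: linear interpolation; highest concentration if not reached. GI50 = concentration required for 50% inhibition of growth. TGI marks complete inhibition of growth.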

Legend:
Experiment in all cases: growth of human tumour cells (NCI), 48 h
RXF 393 renal = tested on: RXF 393 renal
HOP-92 NSCLC = tested on: HOP-92 NSCLC
UACC-257 melanoma = tested on: UACC-257 melanoma
KM12 colon = tested on: KM12 colon
CAKI-1 renal = tested on: CAKI-1 renal
HCT-15 colon = tested on: HCT-15 colon
K-562 leukemia = tested on: K-562 leukemia
U251 CNS = tested on: U251 CNS
NCI-H226 lung = tested on: NCI-H226 lung
SW-620 colon = tested on: SW-620 colon

O=C(O)c1cccc(OCCO)c1
TGI (RXF 393 renal): > 100 µM
TGI (HOP-92 NSCLC): > 100 µM
TGI (UACC-257 melanoma): > 100 µM
TGI (KM12 colon): > 100 µM
TGI (CAKI-1 renal): > 100 µM
TGI (HCT-15 colon): > 100 µM
TGI (K-562 leukemia): > 100 µM
TGI (U251 CNS): > 100 µM
TGI (NCI-H226 lung): > 100 µM
TGI (SW-620 colon): > 100 µM

CCOC(=O)C1=C(C)N(N)C(=S)NC1c1ccc(C)cc1 (centres undefined)
GI50 (RXF 393 renal): 6.44 µM
TGI (RXF 393 renal): > 100 µM
GI50 (HOP-92 NSCLC): 0.932 µM
TGI (HOP-92 NSCLC): > 100 µM
GI50 (UACC-257 melanoma): 36.2 µM
TGI (UACC-257 melanoma): > 100 µM
GI50 (KM12 colon): 64.4 µM
TGI (KM12 colon): > 100 µM
GI50 (HCT-15 colon): 9.1 µM
TGI (HCT-15 colon): > 100 µM
GI50 (K-562 leukemia): 21.6 µM
TGI (K-562 leukemia): > 100 µM
GI50 (U251 CNS): 24.1 µM
TGI (U251 CNS): > 100 µM
GI50 (NCI-H226 lung): 33.8 µM
TGI (NCI-H226 lung): > 100 µM

CN=NN(C)C(=O)NC
TGI (RXF 393 renal): > 100 µM
TGI (HOP-92 NSCLC): > 100 µM
TGI (KM12 colon): > 100 µM
TGI (CAKI-1 renal): > 100 µM
TGI (HCT-15 colon): > 100 µM
TGI (K-562 leukemia): > 100 µM
TGI (U251 CNS): > 100 µM
TGI (SW-620 colon): > 100 µM

O=C(/C=C/c1ccccc1)/C=C/c1ccccc1
TGI (RXF 393 renal): > 100 µM
TGI (HOP-92 NSCLC): 88.6 µM
TGI (UACC-257 melanoma): 87 µM
TGI (KM12 colon): 38.2 µM
TGI (CAKI-1 renal): > 100 µM
TGI (HCT-15 colon): 70.5 µM
TGI (K-562 leukemia): > 100 µM
TGI (U251 CNS): 43.5 µM
TGI (NCI-H226 lung): > 100 µM
TGI (SW-620 colon): 40.8 µM

Cc1[nH][nH]c(=O)c1C=Nc1ccc(-c2nc3ccccc3[nH]2)cc1
GI50 (RXF 393 renal): 11.1 µM
TGI (RXF 393 renal): 46.6 µM
GI50 (HOP-92 NSCLC): > 100 µM
TGI (HOP-92 NSCLC): > 100 µM
GI50 (UACC-257 melanoma): 19.9 µM
TGI (UACC-257 melanoma): 42.1 µM
GI50 (KM12 colon): 18.3 µM
TGI (KM12 colon): 89.7 µM
GI50 (CAKI-1 renal): 19.1 µM
TGI (CAKI-1 renal): 51.2 µM
GI50 (HCT-15 colon): 22 µM
TGI (HCT-15 colon): 55.6 µM
GI50 (K-562 leukemia): 27.4 µM
TGI (K-562 leukemia): 87.2 µM
GI50 (U251 CNS): 19 µM
TGI (U251 CNS): 44.7 µM
GI50 (NCI-H226 lung): 33.7 µM
TGI (NCI-H226 lung): > 100 µM
GI50 (SW-620 colon): 25.6 µM
TGI (SW-620 colon): 55.7 µM

Cc1c[n+](Cc2ccc3ccccc3c2)cn1Cc1ccc2ccccc2c1
GI50 (RXF 393 renal): 1.62 µM
TGI (RXF 393 renal): 3.47 µM
GI50 (HOP-92 NSCLC): 0.448 µM
TGI (HOP-92 NSCLC): 2.02 µM
GI50 (UACC-257 melanoma): 1.46 µM
TGI (UACC-257 melanoma): 3.16 µM
GI50 (KM12 colon): 1.65 µM
TGI (KM12 colon): 3.1 µM
GI50 (HCT-15 colon): 10.3 µM
TGI (HCT-15 colon): 24.2 µM
GI50 (K-562 leukemia): 1.38 µM
TGI (K-562 leukemia): 4.59 µM
GI50 (U251 CNS): 1.61 µM
TGI (U251 CNS): 3.07 µM
GI50 (NCI-H226 lung): 2.12 µM
TGI (NCI-H226 lung): 5.87 µM
GI50 (SW-620 colon): 1.64 µM
TGI (SW-620 colon): 3.74 µM

CCN(CC)CCNCC(=O)Oc1ccc(/C=C/C(=O)CC(=O)/C=C/c2ccc(OC(=O)CNCCN(CC)CC)c(OC)c2)cc1OC
GI50 (HOP-92 NSCLC): 3.93 µM
TGI (HOP-92 NSCLC): 33.1 µM
GI50 (UACC-257 melanoma): 3.58 µM
TGI (UACC-257 melanoma): 16.9 µM
GI50 (KM12 colon): 3.5 µM
TGI (KM12 colon): 31.6 µM
GI50 (CAKI-1 renal): 3.2 µM
TGI (CAKI-1 renal): 15.8 µM
GI50 (HCT-15 colon): 3.68 µM
TGI (HCT-15 colon): 15.3 µM
GI50 (K-562 leukemia): 28.7 µM
TGI (K-562 leukemia): > 100 µM
GI50 (U251 CNS): 3.83 µM
TGI (U251 CNS): 16.2 µM
GI50 (NCI-H226 lung): 6.97 µM
TGI (NCI-H226 lung): 22.1 µM
GI50 (SW-620 colon): 3.02 µM
TGI (SW-620 colon): 9.93 µM

O=S(O)CCCCSSCc1ccccc1CSSCCCCS(=O)O
TGI (RXF 393 renal): 22.8 µM
TGI (HOP-92 NSCLC): 74.7 µM
TGI (UACC-257 melanoma): 18.2 µM
TGI (KM12 colon): 59.6 µM
TGI (CAKI-1 renal): 81.8 µM
TGI (HCT-15 colon): > 100 µM
TGI (K-562 leukemia): 82.3 µM
TGI (U251 CNS): > 100 µM
TGI (SW-620 colon): 89.5 µM

CC(=O)Oc1ccccc1C(=O)N=C1[Se]CCN1C(=O)c1ccccc1OC(C)=O
GI50 (RXF 393 renal): 0.355 µM
TGI (RXF 393 renal): 1.51 µM
GI50 (HOP-92 NSCLC): 1.85 µM
TGI (HOP-92 NSCLC): 3.58 µM
GI50 (UACC-257 melanoma): 1.02 µM
TGI (UACC-257 melanoma): 3.2 µM
GI50 (KM12 colon): 1.1 µM
TGI (KM12 colon): > 100 µM
GI50 (CAKI-1 renal): 0.671 µM
TGI (CAKI-1 renal): 1.98 µM
GI50 (K-562 leukemia): 0.94 µM
TGI (K-562 leukemia): > 100 µM
GI50 (U251 CNS): 0.734 µM
TGI (U251 CNS): 2.18 µM
GI50 (SW-620 colon): 1.52 µM
TGI (SW-620 colon): 6.09 µM

O=C(CCC/C(CC(=O)c1ccc(Br)cc1)=N\O)Nc1ccccc1
TGI (RXF 393 renal): > 100 µM
TGI (HOP-92 NSCLC): > 100 µM
TGI (UACC-257 melanoma): > 100 µM
TGI (KM12 colon): > 100 µM
TGI (U251 CNS): > 100 µM
TGI (NCI-H226 lung): > 100 µM
TGI (SW-620 colon): > 100 µM

CCOC(=O)CCc1c(C)c2c(OC(C)=O)cc(OC(C)=O)cc2oc1=O
TGI (RXF 393 renal): 73.3 µM
TGI (HOP-92 NSCLC): > 100 µM
TGI (UACC-257 melanoma): > 100 µM
TGI (KM12 colon): > 100 µM
TGI (CAKI-1 renal): > 100 µM
TGI (U251 CNS): > 100 µM
TGI (SW-620 colon): > 100 µM

COc1cc2c(cc1OC)C13CCN4CC5=CCOC6CC(=O)N2C1C6C5CC43O (centres undefined)
TGI (HOP-92 NSCLC): > 100 µM
TGI (UACC-257 melanoma): > 100 µM
TGI (KM12 colon): > 100 µM
TGI (CAKI-1 renal): > 100 µM
TGI (HCT-15 colon): > 100 µM
TGI (K-562 leukemia): > 100 µM
TGI (U251 CNS): > 100 µM
TGI (NCI-H226 lung): > 100 µM
TGI (SW-620 colon): > 100 µM

CCOC(=O)[C@H](CCCNC(=O)OC(C)(C)C)NCc1ccc(OC)c(OC)c1
TGI (RXF 393 renal): > 100 µM
TGI (HOP-92 NSCLC): > 100 µM
TGI (UACC-257 melanoma): > 100 µM
TGI (KM12 colon): > 100 µM
TGI (CAKI-1 renal): > 100 µM
TGI (K-562 leukemia): > 100 µM
TGI (U251 CNS): > 100 µM
TGI (NCI-H226 lung): > 100 µM
TGI (SW-620 colon): > 100 µM

Cc1cccc(NC(=O)/C=C/c2ccc(N(CCC#N)CCC#N)cc2C)c1
TGI (HOP-92 NSCLC): > 100 µM
TGI (UACC-257 melanoma): > 100 µM
TGI (KM12 colon): > 100 µM
TGI (CAKI-1 renal): > 100 µM
TGI (HCT-15 colon): > 100 µM
TGI (K-562 leukemia): > 100 µM
TGI (U251 CNS): > 100 µM
TGI (NCI-H226 lung): > 100 µM
TGI (SW-620 colon): > 100 µM

Nc1nc(Nc2ccccc2)c2ncn(Cc3cc4c(cc3Br)OCO4)c2n1
GI50 (RXF 393 renal): 0.0602 µM
TGI (RXF 393 renal): 8.65 µM
GI50 (HOP-92 NSCLC): 0.0651 µM
TGI (HOP-92 NSCLC): 20.7 µM
GI50 (KM12 colon): 0.0418 µM
TGI (KM12 colon): 21 µM
GI50 (CAKI-1 renal): 0.135 µM
TGI (CAKI-1 renal): > 55.2 µM
GI50 (HCT-15 colon): 0.0416 µM
TGI (HCT-15 colon): 5.48 µM
GI50 (K-562 leukemia): 0.0415 µM
TGI (K-562 leukemia): > 39.9 µM
GI50 (U251 CNS): 0.12 µM
TGI (U251 CNS): 1.45 µM
GI50 (NCI-H226 lung): 0.777 µM
TGI (NCI-H226 lung): 31.5 µM
GI50 (SW-620 colon): 0.0471 µM
TGI (SW-620 colon): > 100 µM

O=C(CSc1nnc(-c2ccccc2NC(=O)C(F)(F)F)c(=O)[nH]1)NC(=O)Nc1ccccc1
TGI (RXF 393 renal): > 100 µM
TGI (HOP-92 NSCLC): > 100 µM
TGI (KM12 colon): > 100 µM
TGI (CAKI-1 renal): > 100 µM
TGI (HCT-15 colon): > 100 µM
TGI (K-562 leukemia): > 100 µM
TGI (U251 CNS): > 100 µM
TGI (NCI-H226 lung): > 100 µM
TGI (SW-620 colon): > 100 µM

N#CC1Nc2ccccc2[C@@H](O)C1O (some centres undefined)
TGI (RXF 393 renal): > 100 µM
TGI (HOP-92 NSCLC): > 100 µM
TGI (UACC-257 melanoma): > 100 µM
TGI (KM12 colon): > 100 µM
TGI (CAKI-1 renal): > 100 µM
TGI (HCT-15 colon): > 100 µM
TGI (K-562 leukemia): > 100 µM
TGI (U251 CNS): > 100 µM
TGI (SW-620 colon): > 100 µM

O=C(CCCN1CC=C(n2c(=O)[nH]c3ccccc32)CC1)c1ccc(F)cc1
GI50 (RXF 393 renal): 19 µM
TGI (RXF 393 renal): > 100 µM
GI50 (HOP-92 NSCLC): 45.3 µM
TGI (HOP-92 NSCLC): > 100 µM
GI50 (UACC-257 melanoma): 60.2 µM
TGI (UACC-257 melanoma): > 100 µM
GI50 (KM12 colon): 30.7 µM
TGI (KM12 colon): > 100 µM
GI50 (CAKI-1 renal): 21.7 µM
TGI (CAKI-1 renal): 72.5 µM
GI50 (HCT-15 colon): 37.4 µM
TGI (HCT-15 colon): > 100 µM
GI50 (K-562 leukemia): 29.3 µM
TGI (K-562 leukemia): > 100 µM
GI50 (NCI-H226 lung): 25.5 µM
TGI (NCI-H226 lung): > 100 µM
GI50 (SW-620 colon): 53.5 µM
TGI (SW-620 colon): > 100 µM

O=C(CN1CCCCC1)N1CCc2c([nH]c3ccccc23)C1c1cccnc1 (centres undefined)
TGI (RXF 393 renal): > 100 µM
TGI (HOP-92 NSCLC): > 100 µM
TGI (UACC-257 melanoma): > 100 µM
TGI (KM12 colon): > 100 µM
TGI (CAKI-1 renal): > 100 µM
TGI (HCT-15 colon): > 100 µM
TGI (K-562 leukemia): > 100 µM
TGI (U251 CNS): > 100 µM
TGI (SW-620 colon): > 100 µM
